CC(C)(O)C#Cc1nccs1 [Example 2, 2-Methyl-4-(1,3-thiazol-2-yl)-3-butyn-2-ol]
melting point: 69 to 70 °C

Clc1cncc(C#Cc2nccs2)c1 [Example 6, 3-Chloro-5-(1,3-thiazol-2-ylethynyl)pyridine]
melting point: 124 to 125 °C

From patent US20050043307A1, “Pyridazine, pyrimidine and pyrazine ethyne compounds” (priority 1999, published 2005)
